Measured values from the Biogen ADME set (Fang et al. 2023).
≈ marks a conversion by molar mass, not a printed value.

Conditions: for aqueous solubility: pH 6.8

## Cc1cc(OCC(=O)N(C)C2CCCCCCC2)no1
  MDR1-MDCK efflux ratio: 0.765
  intrinsic clearance, human liver microsomes: 56.6 mL/min/kg
  intrinsic clearance, rat liver microsomes: 2210 mL/min/kg
  aqueous solubility: 43.9 µg/mL (≈ 156 µM)

## Cc1nc(Cc2ccccc2)sc1C(=O)Nc1cccc(-c2ccn[nH]2)c1
  MDR1-MDCK efflux ratio: 2.86
  intrinsic clearance, human liver microsomes: 30.4 mL/min/kg
  intrinsic clearance, rat liver microsomes: 406 mL/min/kg

## C=CCn1c(=O)c2cnc(Nc3ccc(N4CCN(C)CC4)cc3)nc2n1-c1cccc(C(C)(C)O)n1
  MDR1-MDCK efflux ratio: 63.4
  intrinsic clearance, human liver microsomes: 32.7 mL/min/kg
  intrinsic clearance, rat liver microsomes: 67.9 mL/min/kg

## CNc1cc(C)nc(-c2ccnc3c2ccn3C)n1
  intrinsic clearance, human liver microsomes: 85.7 mL/min/kg
  intrinsic clearance, rat liver microsomes: 82.2 mL/min/kg
  aqueous solubility: 29.2 µg/mL (≈ 115 µM)

## Cc1nccc(-c2cccc(NCC(=O)NCc3ccccc3)c2)n1
  intrinsic clearance, human liver microsomes: 62.8 mL/min/kg
  intrinsic clearance, rat liver microsomes: 653 mL/min/kg

## COc1ccc(CC(=O)N2CCc3[nH]c4ccc(Cl)cc4c3C2)cc1OC
  MDR1-MDCK efflux ratio: 6.37
  intrinsic clearance, human liver microsomes: 120 mL/min/kg
  intrinsic clearance, rat liver microsomes: 675 mL/min/kg
  aqueous solubility: 6.7 µg/mL (≈ 17.4 µM)

## COc1cc(Nc2ncc(F)c(Nc3ccc4c(n3)NC(=O)C(C)(C)O4)n2)cc(OC)c1OC
  intrinsic clearance, human liver microsomes: 133 mL/min/kg
  intrinsic clearance, rat liver microsomes: 122 mL/min/kg

## O=C(CCCc1cc(Cl)sc1Cl)N1CCC(O)CC1
  MDR1-MDCK efflux ratio: 0.857
  intrinsic clearance, human liver microsomes: 52.4 mL/min/kg
  intrinsic clearance, rat liver microsomes: 741 mL/min/kg
  aqueous solubility: 30.1 µg/mL (≈ 93.4 µM)

## Cc1cnc(NCC2(CO)CCCC2)nc1N(C)C
  MDR1-MDCK efflux ratio: 0.95
  intrinsic clearance, human liver microsomes: 29.7 mL/min/kg
  intrinsic clearance, rat liver microsomes: 1050 mL/min/kg

## COc1ncnc2c1CN(Cc1c[nH]nc1-c1ccc(F)cc1)CC2
  MDR1-MDCK efflux ratio: 7.03
  intrinsic clearance, human liver microsomes: 70.7 mL/min/kg
  intrinsic clearance, rat liver microsomes: 210 mL/min/kg
  aqueous solubility: 28.4 µg/mL (≈ 83.5 µM)

## Cc1ccc(CNC(=O)c2cccs2)cn1
  MDR1-MDCK efflux ratio: 0.842
  intrinsic clearance, human liver microsomes: ≤ 4.74 mL/min/kg
  intrinsic clearance, rat liver microsomes: ≤ 10.7 mL/min/kg
  aqueous solubility: 52.3 µg/mL (≈ 225 µM)

## Cc1cn2c3c(=O)n(Cc4ccccc4Cl)c(=O)n(C)c3nc2n1-c1ccccc1O
  MDR1-MDCK efflux ratio: 12.8
  aqueous solubility: 0.19 µg/mL (≈ 0.436 µM)

## CCCc1n[nH]c2c1C(C1CC=CCC1)C(C#N)=C(N)O2 (stereo not given)
  aqueous solubility: 3.07 µg/mL (≈ 10.8 µM)

## Cc1c(C(=O)NCCc2cc3nc(-c4ccco4)ccn3n2)cnn1C
  intrinsic clearance, human liver microsomes: 29 mL/min/kg
  intrinsic clearance, rat liver microsomes: 173 mL/min/kg

## Cn1cc(NC(=O)c2csc(Cc3ccccc3)n2)cn1
  intrinsic clearance, human liver microsomes: 23.7 mL/min/kg
  intrinsic clearance, rat liver microsomes: 64.8 mL/min/kg
  aqueous solubility: 34.5 µg/mL (≈ 116 µM)

## CC(COc1ccccc1Cc1ccccc1)N1CCCCC1 (stereo not given)
  MDR1-MDCK efflux ratio: 1.3
  intrinsic clearance, human liver microsomes: 12.5 mL/min/kg
  intrinsic clearance, rat liver microsomes: 2880 mL/min/kg

## O=C(c1cccc2ccccc12)N1CCCC(C(=O)N2CCc3ccccc3C2)C1 (stereo not given)
  MDR1-MDCK efflux ratio: 5.83
  intrinsic clearance, human liver microsomes: 696 mL/min/kg
  intrinsic clearance, rat liver microsomes: 4470 mL/min/kg
  aqueous solubility: 56.4 µg/mL (≈ 142 µM)

## OC[C@H](Nc1cncc(-c2ccc3[nH]ncc3n2)c1)c1ccccc1
  MDR1-MDCK efflux ratio: 25
  fraction unbound, human plasma: 0.104
  fraction unbound, rat plasma: 0.106
  intrinsic clearance, human liver microsomes: 9.8 mL/min/kg
  intrinsic clearance, rat liver microsomes: 330 mL/min/kg
  aqueous solubility: 32.7 µg/mL (≈ 98.6 µM)

## COC(=O)CC1=NN(c2ccc(OC)cc2)C(=O)/C1=C(/C)NCc1ccc(OC)cc1
  MDR1-MDCK efflux ratio: 1.26
  intrinsic clearance, human liver microsomes: 272 mL/min/kg
  intrinsic clearance, rat liver microsomes: 503 mL/min/kg
  aqueous solubility: 2.28 µg/mL (≈ 5.38 µM)

## CCCc1noc(CN2CCN(c3ccccc3OC)CC2)n1
  MDR1-MDCK efflux ratio: 0.743
  intrinsic clearance, human liver microsomes: 27 mL/min/kg
  intrinsic clearance, rat liver microsomes: 351 mL/min/kg

## Cc1ccccc1S(=O)(=O)N[C@@H]1CC[C@@H](O)[C@@H]1O
  intrinsic clearance, human liver microsomes: ≤ 4.74 mL/min/kg
  intrinsic clearance, rat liver microsomes: 17.7 mL/min/kg

## Cc1ccc(-c2nc(CC(=O)NCCC(C)C)cs2)cc1
  MDR1-MDCK efflux ratio: 0.529
  intrinsic clearance, human liver microsomes: 464 mL/min/kg
  intrinsic clearance, rat liver microsomes: 6110 mL/min/kg
  aqueous solubility: 8.17 µg/mL (≈ 27 µM)

## Nc1nccc2c1ncn2[C@H]1C=C(CO)[C@@H](O)[C@H]1O
  intrinsic clearance, human liver microsomes: ≤ 4.74 mL/min/kg
  intrinsic clearance, rat liver microsomes: 16.3 mL/min/kg

## Cc1[nH]nc2c1C1(CCCCC1)CC(=O)N2
  MDR1-MDCK efflux ratio: 3.36
  fraction unbound, human plasma: 0.21
  fraction unbound, rat plasma: 0.193
  intrinsic clearance, human liver microsomes: 8.44 mL/min/kg
  intrinsic clearance, rat liver microsomes: 45.6 mL/min/kg

## CNCc1cc(NC)nc(C2CCCN2C(=O)C(C)(C)c2ccc(C)cc2)n1 (stereo not given)
  MDR1-MDCK efflux ratio: 36.8
  intrinsic clearance, human liver microsomes: 16.2 mL/min/kg
  intrinsic clearance, rat liver microsomes: 153 mL/min/kg

## CCN(CC)C(=O)CSCc1cncc(F)c1
  MDR1-MDCK efflux ratio: 0.711
  intrinsic clearance, human liver microsomes: 31.2 mL/min/kg
  intrinsic clearance, rat liver microsomes: 835 mL/min/kg

## N#Cc1ccc(COc2cnc3ccccc3n2)cc1
  MDR1-MDCK efflux ratio: 0.507
  aqueous solubility: 0.19 µg/mL (≈ 0.727 µM)

## Cc1cc(N2CCCC2)nc(C2CCCN(C)C2)n1 (stereo not given)
  fraction unbound, human plasma: 1
  fraction unbound, rat plasma: 0.727
  intrinsic clearance, human liver microsomes: 9.21 mL/min/kg
  intrinsic clearance, rat liver microsomes: 331 mL/min/kg

## O=C(NCCN1CCc2ccccc2C1=O)c1ccncc1
  intrinsic clearance, human liver microsomes: 13.6 mL/min/kg
  intrinsic clearance, rat liver microsomes: 240 mL/min/kg

## Cc1nc(CN2C(=O)CN(C3CCCC3)C2=O)nc2ccccc12
  MDR1-MDCK efflux ratio: 1.54
  intrinsic clearance, human liver microsomes: ≤ 4.74 mL/min/kg
  intrinsic clearance, rat liver microsomes: 823 mL/min/kg
  aqueous solubility: 43 µg/mL (≈ 132 µM)

## CN(C)C1(CNC(=O)N2CCC=C(c3ccccc3)C2)CCOCC1
  MDR1-MDCK efflux ratio: 35.5
  intrinsic clearance, human liver microsomes: 34.8 mL/min/kg
  intrinsic clearance, rat liver microsomes: 874 mL/min/kg

## [2H]c1nc(C)nc([2H])c1-c1cc(NC[C@@H](C)c2cccc3c(C(=O)NC)ccnc23)ncn1
  MDR1-MDCK efflux ratio: 106
  intrinsic clearance, human liver microsomes: 5.41 mL/min/kg
  intrinsic clearance, rat liver microsomes: 88.5 mL/min/kg

## Cc1ccc(F)c(N(C#N)Cc2nccn2C(F)F)c1
  MDR1-MDCK efflux ratio: 0.613
  intrinsic clearance, human liver microsomes: 19.9 mL/min/kg
  intrinsic clearance, rat liver microsomes: 225 mL/min/kg
  aqueous solubility: 45.1 µg/mL (≈ 161 µM)

## CN(C)c1ccnc2sc3c(=O)n(N4CCCCCC4)cnc3c12
  MDR1-MDCK efflux ratio: 3.06
  intrinsic clearance, human liver microsomes: 8.59 mL/min/kg
  intrinsic clearance, rat liver microsomes: 90.9 mL/min/kg

## Cc1ccc(OCC2(O)CCN(CC3(O)CCN(c4ccccc4C)CC3)CC2)cc1
  MDR1-MDCK efflux ratio: 0.655
  fraction unbound, human plasma: 0.00911
  intrinsic clearance, human liver microsomes: 400 mL/min/kg

## c1cnc(NCc2cccc3cnccc23)nc1
  intrinsic clearance, human liver microsomes: 60.5 mL/min/kg
  intrinsic clearance, rat liver microsomes: 178 mL/min/kg

## O=C(NCCc1ccc2c(c1)OCO2)C1CCCC1
  MDR1-MDCK efflux ratio: 0.69
  intrinsic clearance, human liver microsomes: 27.6 mL/min/kg
  intrinsic clearance, rat liver microsomes: 600 mL/min/kg
  aqueous solubility: 42.1 µg/mL (≈ 161 µM)

## CN(Cc1c(F)cccc1Cl)C(=O)C1(C#N)CCCC1
  intrinsic clearance, human liver microsomes: 111 mL/min/kg
  intrinsic clearance, rat liver microsomes: 1250 mL/min/kg
  aqueous solubility: 35.2 µg/mL (≈ 120 µM)

## Cc1ccc(C2(O)CCN(Cc3cn(C)c4ccc(F)cc34)CC2)cc1
  MDR1-MDCK efflux ratio: 0.869
  intrinsic clearance, human liver microsomes: 65.2 mL/min/kg
  intrinsic clearance, rat liver microsomes: 1790 mL/min/kg
  aqueous solubility: 49.7 µg/mL (≈ 141 µM)

## CCOc1ccc(CC(=O)N2CCC3(CC2)Nc2cc(C)ccc2-n2cccc23)cc1OCC
  intrinsic clearance, human liver microsomes: 187 mL/min/kg
  intrinsic clearance, rat liver microsomes: 956 mL/min/kg

## CCNC(=O)c1cc(C2CC2)nc2c1c(C)nn2-c1ccccn1
  MDR1-MDCK efflux ratio: 3.78
  intrinsic clearance, human liver microsomes: 25.8 mL/min/kg
  intrinsic clearance, rat liver microsomes: 70.7 mL/min/kg
  aqueous solubility: 54.1 µg/mL (≈ 168 µM)
